The subject of series [1] is intracerebral 2-AG and arachidonic acid. Put plainly: Measurement of intracerebral 2-AG and arachidonic acid concentrations after oral administration. It is filed as in vivo, mouse (C57BL/6J). To be noted: for 2-AG concentration / arachidonic acid concentration: male C57BL/6J mice, 1 mg/kg by gavage, cerebrum isolated 1 hour after administration; for 2-AG concentration: control 13.5; for arachidonic acid concentration: control 203.1; for intracerebral 2-AG concentration compared to control / intracerebral arachidonic acid concentration compared to control / migration into brain: oral administration to C57BL/6J mice. How it is done:
As the mouse, 8-week-old male C57BL/6J mice (CLEA Japan, Inc.) were used (6 mice/group). Administration solutions were prepared by suspending the test compounds (compound 1 (compound of Example 16), compound 2 (compound of Example 18) and compound 3 (compound of Example 46)) in 0.5% methylcellulose solution (Wako Pure Chemical Industries, Ltd.). The dose of the test compound was prepared to be 1 mg/kg body weight/10 mL. The test compounds were administered by gavage at 1 mg/kg body weight. The cerebrum was isolated after the administration of the test compound (isolation time after the administration of the test compound is shown in Table 3), and the cerebrum hemisphere was extracted. The obtained cerebrum hemisphere was frozen on dry ice, and the frozen tissue weight was measured.
The cerebral tissue was homogenized with 4-fold (v/w) of isopropanol (IPA), and double diluted with IPA. To the diluted sample (200 μL) was added internal standard solution (5 μL) ([5,6,8,9,11,12,14,15-D8]-(5Z,8Z,11Z,14Z)-5,8,11,14-eicosatetraenoic acid (AA-d8, 0.5 nmol/mL IPA) and [5,6,8,9,11,12,14,15-D8]-(5Z,8Z,11Z,14Z)-5,8,11,14-eicosatetraenoyl-2-glycerol ester (2-AG-d8, 0.5 nmol/mL IPA)), and the mixture was centrifuged at 15000 rpm for 5 min. The supernatant was injected to liquid chromatography mass spectrometer for quantitative analysis.
For liquid chromatography, Shimadzu LC20A system (Shimadzu Corporation) was used. The separation was performed by gradient elution method with mobile phase A (10 mmol/L HCOONH4/HCOOH (100:0.2, v/v)) and mobile phase B (ethanol/IPA (3:2, v/v)) using Shim-pack XR-ODS (2.2 μm, 2.0×30 mm, Shimadzu Corporation) at column temperature of 50° C., at flow rate of 0.5 mL/min. The gradient conditions are as follows: 0-1 min, 1% B; 1-1.2 min, 1-55% B; 1.2-2.7 min, 55-75% B; 2.7-3.5 min, 75-99% B; 3.5-6 min, 99% B; 6-8 min, 1% B.
For mass spectrometer, API5000 (AB SCIEX) was used. The eluate from the liquid chromatography was directly ionized by turbospray ionization method, where (5Z,8Z,11Z,14Z)5,8,11,14-eicosatetraenoic acid (AA) and AA-ds were measured by negative ionization mode, and (5Z,8Z,11Z,14Z)5,8,11,14-eicosatetraenoyl-2-glycerol ester (2-AG) and 2-AG-d8 were measured by positive ionization mode.
A solution for calibration curve was prepared to the concentration of 2, 5, 10, 20, 50, 100, 200, 500, 1000 nmol/mL of acetonitrile. These solutions (10 μL) was mixed with 200 μL of IPA and 5 μL of internal standard solution, and the mixture was centrifuged at 15000 rpm for 5 min, and the supernatant was injected to liquid chromatography mass spectrometer. Liner regression with 1/x^2 weighting was used for the calibration curve fitting, and the quantitativity was confirmed by accuracy of 100±20% and R^2>0.99.

For series [2], the target named is T1, His-hMAGL (recombinant polyhistidine tagged human MAGL protein) (Homo sapiens, UniProt Q99685).
T1 construct: made in house; host or cells: E. coli BL21(DE3)
T1 sequence (Q99685 1-303): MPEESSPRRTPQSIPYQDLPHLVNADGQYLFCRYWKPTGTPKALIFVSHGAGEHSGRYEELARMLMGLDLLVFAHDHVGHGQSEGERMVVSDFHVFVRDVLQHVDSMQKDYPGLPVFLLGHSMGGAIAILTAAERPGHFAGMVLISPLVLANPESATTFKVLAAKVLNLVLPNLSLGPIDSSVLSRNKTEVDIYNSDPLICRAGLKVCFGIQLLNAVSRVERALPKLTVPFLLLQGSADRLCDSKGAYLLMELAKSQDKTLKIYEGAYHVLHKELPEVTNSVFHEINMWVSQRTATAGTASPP
Kind of series: Measurement of MAGL inhibitory activity (arachidonic acid production from 2-arachidonylglycerol, RapidFire-mass spectrometry). It is filed as biochemical. To be noted: test compound 10 μM; MAGL inhibitory rate.

Structures are written as SMILES.

The inhibition is the drop in the measured response relative to a control, in per cent. In the case of `O=C1NC2(CO1)CN(C(=O)O[C@H]1C[C@@H](Oc3c(F)cc(F)cc3F)C1)C2` [Example 46, cis-3-(2,4,6-trifluorophenoxy)cyclobutyl 6-oxo-7-oxa-2,5-diazaspiro[3.4]octane-2-carboxylate], in series [1], the 2-AG concentration worked out at 79.0 nmol/g, the arachidonic acid concentration came to 138.0 nmol/g, the “intracerebral 2-AG concentration compared to control” value was “increased” and the “intracerebral arachidonic acid concentration compared to control” value is “decreased”. In addition, the migration into brain entry in series [1] is “migrated into brain”. In addition, the inhibition at 10 µM in series [2] turned out to be 102%.

For the compound `O=C1NC2(CO1)CN(C(=O)O[C@H]1C[C@@H](COc3c(F)cc(F)cc3F)C1)C2` [Example 18, cis-3-((2,4,6-trifluorophenoxy)methyl)cyclobutyl 6-oxo-7-oxa-2,5-diazaspiro[3.4]octane-2-carboxylate], in series [1], the 2-AG concentration amounted to 128.7 nmol/g, the arachidonic acid concentration was found to be 84.3 nmol/g, the “intracerebral 2-AG concentration compared to control” value is “increased” and the “intracerebral arachidonic acid concentration compared to control” value was “decreased”. For the same compound, the migration into brain entry in series [1] is “migrated into brain”. In series [2], the inhibition at 10 µM came out at 102%.

Regarding `O=C1NC2(CO1)CN(C(=O)O[C@H]1C[C@@H](COc3ccc(F)c(F)c3F)C1)C2` [Example 16, cis-3-((2,3,4-trifluorophenoxy)methyl)cyclobutyl 6-oxo-7-oxa-2,5-diazaspiro[3.4]octane-2-carboxylate], in series [1], the 2-AG concentration amounted to 82.3 nmol/g, the arachidonic acid concentration is reported as 119.8 nmol/g, the “intracerebral 2-AG concentration compared to control” value is “increased” and the “intracerebral arachidonic acid concentration compared to control” value is recorded as “decreased”. Further, in series [1], the migration into brain entry is listed as “migrated into brain”. In series [2], the inhibition at 10 µM is 100%.

For the origin of these results see patent US11274101B2, “Heterocyclic compound” (Takeda Pharmaceutical Company Limited, priority 2017, dated 2022).
